How the values were obtained:
cGAS [1] = biological target: T1, cGAS (Homo sapiens, UniProt Q8N884); test: In vitro inhibition assay of cGAS activity (cGAMP production, RapidFire mass spectrometry); format: biochemical; set-up: Insert cDNA encoding full-length of human cGAS; His6; made in house; host or cells: E. coli BL21(DE3); conditions: 10 nM recombinant human cGAS, 60 nM 75-bp dsDNA, 50 μM ATP, 50 μM GTP, 3 hrs
Summary of the method: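 His6-tagged full-length human cGAS (10 nM, E. coli-expressed) was incubated for 3 hrs at ambient temperature with 60 nM 75-bp dsDNA, 50 μM ATP and 50 μM GTP in Tris pH 7.5/MgCl2 buffer with compound dilutions. cGAMP was quantified by RapidFire mass spectrometry against an internal standard, and IC50 was obtained by 4-parameter logistic fit.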

cGAS [2] = biological target: T1, cGAS; test: Cellular assay to measure cGAS activity (IFNb AlphaLISA in THP1 cells stimulated by RDG-Adenovirus-GFP); format: cell-based; set-up: host or cells: THP1 cells differentiated with PMA and stimulated with RDG-Adenovirus-GFP; conditions: PMA-differentiated THP1 cells, RDG-Adenovirus-GFP at 1000 MOI; inhibition of IFNb production as marker for cGAS activity
Summary of the method: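 PMA-differentiated THP1 cells were infected with RDG-Adenovirus-GFP at 1000 MOI for 4 h, then exposed overnight to test compounds. IFNb in the supernatant was quantified by AlphaLISA as a cGAS activity marker, and IC50 was fitted with a 4-parameter logistic equation.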

T1 sequence (Q8N884 whole entry): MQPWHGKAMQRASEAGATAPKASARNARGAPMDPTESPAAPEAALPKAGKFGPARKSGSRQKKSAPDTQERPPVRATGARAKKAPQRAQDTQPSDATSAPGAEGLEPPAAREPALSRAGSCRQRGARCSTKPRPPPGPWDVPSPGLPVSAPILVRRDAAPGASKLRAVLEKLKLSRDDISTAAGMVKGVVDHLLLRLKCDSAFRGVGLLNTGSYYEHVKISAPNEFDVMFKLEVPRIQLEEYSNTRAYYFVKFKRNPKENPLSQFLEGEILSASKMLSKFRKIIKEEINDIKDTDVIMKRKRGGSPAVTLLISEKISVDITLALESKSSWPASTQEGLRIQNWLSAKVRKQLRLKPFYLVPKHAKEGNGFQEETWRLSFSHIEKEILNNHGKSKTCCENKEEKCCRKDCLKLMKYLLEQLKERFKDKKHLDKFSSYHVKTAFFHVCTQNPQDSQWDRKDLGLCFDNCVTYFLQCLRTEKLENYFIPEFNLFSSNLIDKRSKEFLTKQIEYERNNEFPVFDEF

IC50 (cGAS [1]) | IC50 (cGAS [2]) | Compound
38.8 nM | 3250 nM | Cn1ncc(-c2cc(Cl)c(Cl)c3c2c2c(n3C)C(CC(C)(C)O)CNC(=O)C2)n1 (stereo not shown) [Example 105, 7,8-Dichloro-5-(2-hydroxy-2-methylpropyl)-6-methyl-10-(2-methyl-2H-1,2,3-triazol-4-yl)-3,4,5,6-tetrahydroazepino[4,5-b]indol-2(1H)-one]
19 nM | 1150 nM | CC1C(=O)NCCc2[nH]c3c(Cl)c(Cl)cc(OCCF)c3c21 (stereo not shown) [Example 75, 7,8-Dichloro-10-(2-fluoroethoxy)-1-methyl-3,4,5,6-tetrahydroazepino[4,5-b]indol-2(1H)-one]
48.7 nM | 1280 nM | CCC1CNC(=O)Cc2c1[nH]c1c(Cl)c(Cl)cc(-c3cnn(C)n3)c21 (stereo not shown) [Example 162, 7,8-Dichloro-5-ethyl-10-(2-methyl-2H-1,2,3-triazol-4-yl)-3,4,5,6-tetrahydroazepino[4,5-b]indol-2(1H)-one]
38.6 nM | 1470 nM | CC1C(=O)NCCc2[nH]c3c(Cl)c(Cl)cc(OCC(F)F)c3c21 (racemic) [Example 76, 7,8-Dichloro-10-(2,2-difluoroethoxy)-1-methyl-3,4,5,6-tetrahydroazepino[4,5-b]indol-2(1H)-one]
118 nM | 7790 nM | O=C1Cc2c([nH]c3c(Cl)c(Cl)cc(OCCCO)c23)CCN1 [Example 23, 7,8-Dichloro-10-(3-hydroxypropoxy)-3,4,5,6-tetrahydroazepino[4,5-b]indol-2(1H)-one]
17.4 nM | 1370 nM | COCCOc1cc(Cl)c(Cl)c2[nH]c3c(c12)[C@H](C)C(=O)NCC3(C)C (single isomer, unassigned) [Example 184, (S)-7,8-Dichloro-10-(2-methoxyethoxy)-1,5,5-trimethyl-3,4,5,6-tetrahydroazepino[4,5-b]indol-2(1H)-one or (R)-7,8-dichloro-10-(2-methoxyethoxy)-1,5,5-trimethyl-3,4,5,6-tetrahydroazepino[4,5-b]indol-2(1H)-one]
214 nM | 3140 nM | Cn1ncc(-c2cc(Cl)c(Cl)c3[nH]c4c(c23)CC(=O)NC[C@H]4CCO)n1 (single isomer, unassigned) [Example 8B]
13 nM | 256 nM | C[C@@H]1CNC(=O)[C@@H](C)c2c1[nH]c1c(Cl)c(Cl)cc(NC(=O)CO)c21 (single isomer, unassigned) [Example 160, N-((1S,5R)-7,8-Dichloro-1,5-dimethyl-2-oxo-1,2,3,4,5,6-hexahydroazepino[4,5-b]indol-10-yl)-2-hydroxyacetamide or N-((1R,5S)-7,8-Dichloro-1,5-dimethyl-2-oxo-1,2,3,4,5,6-hexahydroazepino[4,5-b]indol-10-yl)-2-hydroxyacetamide]
683 nM | > 10000 nM | Cn1ncc(-c2cc(Cl)c(Cl)c3[nH]c4c(c23)CC(=O)NC[C@H]4CC(C)(F)F)n1 (single isomer, unassigned) [Example 137]
5.12 nM | > 10000 nM | Cn1ncc(-c2cc(Cl)c(Cl)c3[nH]c4c(c23)CC(=O)NCC4CC(=O)O)n1 (racemic) [Example 5, 2-(7,8-Dichloro-10-(2-methyl-2H-1,2,3-triazol-4-yl)-2-oxo-1,2,3,4,5,6-hexahydroazepino[4,5-b]indol-5-yl)acetic acid]

Compound | IC50 (cGAS [1]) | IC50 (cGAS [2])
C[C@@H]1CNC(=O)Cc2c1[nH]c1c(Cl)c(Cl)cc(OCC#N)c21 (single isomer, unassigned) [Example 149] | 1560 nM | 3080 nM

From US20240246979A1, “cGAS INHIBITORS” (Eli Lilly and Company, priority 2022, published 2024)
